The values below come from US9447449B2, “Recombinant mycobacteriophages for delivery of nucleic acids of interest into mycobacteria” (Albert Einstein College of Medicine of Yeshiva University, priority 2011, dated 2016).

In the experiment the test system is M. tuberculosis mc^26230. Type of experiment: cell-based.

On to `NNC(=O)c1ccncc1` [isoniazid], for which the “MFI relative to untreated control” value is given as “lower than the untreated control”; the “average fluorescence decreased by” value is recorded as 64%; the “effect of 18 hr pre-treatment prior to phage addition on DST signal” value is “increased the difference between treated and non-treated samples”; the “six hour pre-incubation to determine drug sensitivity” value is on record as “not sufficient”.

As for `NC[C@H]1O[C@H](O[C@H]2[C@H](O)[C@@H](O[C@H]3O[C@H](CO)[C@@H](O)[C@H](N)[C@H]3O)[C@H](N)C[C@@H]2N)[C@H](O)[C@@H](O)[C@@H]1O` [kanamycin], the “fluorescence of the M. tuberculosis cells diminished by” value is “approximately 85%”.

As for `CO[C@H]1/C=C/O[C@@]2(C)Oc3c(C)c(O)c4c(O)c(c(/C=N/N5CCN(C)CC5)c(O)c4c3C2=O)NC(=O)/C(C)=C\C=C\[C@H](C)[C@H](O)[C@@H](C)[C@@H](O)[C@@H](C)[C@H](OC(C)=O)[C@@H]1C` [rifampicin], the “fluorescence of the M. tuberculosis cells diminished by” value is “approximately 85%”.
